In patent US12264156B2, “Compounds and pharmaceutical compositions thereof for the treatment of diseases” (GALAPAGOS NV, priority 2018, dated 2025):

Tests used:
SIK1 = biological target: T1, SIK1 (Homo sapiens, UniProt P57059); assay: ADP-Glo kinase assay, SIK1; type: biochemical; details: ADP-Glo SIK kinase assay
T1 construct: purchased Carna Biosciences 02-131
Outline: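 ADP-Glo, RT throughout. Enz/substrate + ATP, 120 min; ADP-Glo reagent 40 min (ATP depletion); detection reagent 30 min; luminescence read. Neg ctrl 1% DMSO, pos ctrl 10 μM staurosporine, final concs.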

SIK2 = biological target: T2, SIK2 (Homo sapiens, UniProt Q9H0K1); assay: ADP-Glo kinase assay, SIK2; type: biochemical; details: ADP-Glo SIK kinase assay
T2 construct: purchased ThermoFisher Scientific PV4792
Outline: (§1)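 Wells with 1% DMSO or 10 μM staurosporine (final) define the control window. The kinase reaction with substrate and ATP runs 120 min at RT, followed by ADP-Glo detection: ATP depletion (40 min) and ADP-derived luminescence (30 min).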

SIK3 = biological target: T3, SIK3 (Homo sapiens, UniProt Q9Y2K2); assay: ADP-Glo kinase assay, SIK3; type: biochemical; details: ADP-Glo SIK kinase assay
T3 construct: purchased SignalChem S12-11G-100
Outline: as §1

[1] = test system: LPS-induced TNFα in monocytes; assay: Monocytes assay: LPS-triggered TNFα (ELISA); type: cell-based, human; details: Homo sapiens, Monocyte, LPS 200 ng/mL, supernatant after 4 h
Method: (§2) SIK inhibition inhibits TNFα and increases IL-10 release in LPS triggered monocyte-derived macrophages (MdM) and dendritic cells (MdDCs) (Clark et al. 2012; Sundberg et al. 2014; Ozanne et al. 2015). This assay evaluates illustrative compounds of the invention for their inhibition of LPS-induced TNFα and LPS triggered IL-10 secretion in monocytes.
(§3) PBMCs are isolated from human blood samples (buffycoats). The buffy coat is aseptically transferred into a 50 mL Falcon tube, and diluted 1/2 in PBS. Falcon tubes are filled with 20 mL Lymphoprep™, on top of which 25 mL of the buffy coat is carefully added, tubes are centrifuged for 35 min at 400 g in temperature controlled centrifuge, without brake, at 25° C. PBMCs are aspirated from the white interface layer between sample and Lymphoprep™. PBMCs are washed five times in PBS. Cells are resuspended in RPMI 1640 complete medium supplemented with 10% FBS, 1% P/S, and cell density is determined using a hematologic analyzer (Sysmex XS-500i).
(§4) PBMCs are centrifuged at 300×g for 10 min and resuspended at a density of 1.0*10^7 cells/80 μL Miltenyi buffer (PBS, pH 7.4, 1% FBS, 2 mM EDTA).
(§5) Starting from this point of the protocol all steps are performed on ice. 20 μL of CD14+ micro-beads are added per 1.0*10^7 cells, the tube is mixed and incubated for 15 min in the fridge at 4° C. Cell suspension volume is adjusted to total volume of 100 mL using Miltenyi buffer, mixed gently and subsequently centrifuged for 10 min at 300×g. Supernantant is discarded and cell pellet is resuspended in 12 mL of Miltenyi buffer.
(§6) Four LS columns are placed in the MACS Separator (magnet) from Miltenyi Biotec, and are prewet by rinsing with 3 mL of MACS buffer per column. Three mL of cell suspension is added onto the column (max 1*10^8 of labelled cells/column), and columns are subsequently washed 3 times with 3 mL of Miltenyi buffer.
(§7) The columns are removed from the magnets, and 5 mL of Miltenyi buffer are added to the column to flush out the CD14+ fraction by pushing the plunger into the column. The flushed fractions are collected in a fresh 50 mL Falcon and volume is adjusted to 30 mL using Miltenyi buffer, cells are centrifuged for 10 min at 300×g. The obtained cell pellet is resuspended in 10 mL RPMI w/o FBS, and cell density is determined using a hematologic analyser (Sysmex XS-500i). 100 000 cells are seeded in 80 μL per well of a 96-well plate in RPMI 1640 medium supplemented with 10% FBS, 1% P/S.
(§8) A compound dilution plate is made in 100% DMSO by 3-fold dilution of 10 mM stock solution. An intermediate dilution plate (10× final concentration) is made by diluting the compound dilution plate 50-fold in RPMI medium.
(§9) 10 μL of the 10× final concentration compound is added to the cells and incubated for 1 h at 37° C. before addition of trigger. No trigger conditions/trigger conditions are spiked with equal final DMSO concentrations of 0.2% DMSO. 10 μL of 10×LPS (final conc. 200 ng/mL) solution are added to all wells except for the ‘no trigger wells’ where 10 μL medium is added. Supernatant is collected after 4 h of LPS triggering.
A Lumitrac 600 Greiner 384-well plate is coated with 40 μL of capture antibody (BD Pharmingen, Cat #551220) reaching a final concentration of 1 μg/mL in 1×PBS and stored overnight at 4° C.
The plate is then washed once with PBST (PBS+0.05% Tween20) and once with PBS followed by the addition of 100 μL of blocking buffer (1% Bovine Serum Albumin (BSA)−5% Sucrose) and plates are sealed and incubated for at least 4 h at RT. After washing the plate once with PBST and once with PBS, […]. Plates are washed twice with PBST, and once with PBS, after which 35 μL of the detection antibody is added (final concentration 0.25 μg/mL diluted in dilution buffer) and plates are incubated for at least 2 h at RT. […]

[2] = test system: LPS triggered IL-10 secretion in monocytes; assay: Monocytes assay: LPS-triggered IL-10 (ELISA); type: cell-based, human; details: LPS 200 ng/mL, supernatant after 4 h, maximal fold change vs LPS only
Method: as §2, §3, §4, §5, §6, §7, §8, §9
A Lumitrac 600 Greiner 384-well plate is coated with 40 μL of capture antibody (final concentration of 1 μg/mL in 1×PBS) and stored overnight at 4° C. The next day the plate is washed three times with PBST (PBS+0.05% Tween20) and once with PBS followed by the addition of 100 μL of blocking buffer (1% BSA−5% Sucrose) and plates are sealed and incubated for at least 4 h at RT. After washing the plate once with PBST and once with PBS, 40 μL of standard or sample are added (IL-10 standard curve is prepared using a 1/2 serial dilution starting from […]; dilutions are made in dilution buffer (PBS+1% BSA)). Plates are washed twice with PBST, and once with PBS, after which 35 μL of the detection antibody is added (final concentration 0.143 μg/mL diluted in dilution buffer) and plates are incubated for at least 2 h at RT. […]

[3] = test system: LPS-induced TNFα in monocyte-derived macrophages (MdM); assay: MdM assay: LPS-triggered TNFα (ELISA); type: cell-based, human; details: Homo sapiens, Macrophage, 20 h, monocyte-derived macrophages, LPS 200 ng/mL, supernatant after 20 h; read-out: TNFα EC50
Method: This assay evaluates illustrative compounds of the invention for their inhibition of LPS-induced TNFα and LPS triggered IL-10 secretion in monocyte-derived macrophages.
as §3, with “PBS.” for “PBS. Cells are resuspended in RPMI 1640 complete medium supplemented with 10% FBS, 1% P/S, and cell density is determined using a hematologic analyzer (Sysmex XS-500i).”
as §4, §5, §6
as §7, with “XS-500i).” for “XS-500i). 100 000 cells are seeded in 80 μL per well of a 96-well plate in RPMI 1640 medium supplemented with 10% FBS, 1% P/S.”
On day 10, MdMs are triggered and compound is added.
as §8
Medium is carefully removed from cell plates using multichannel pipette, and replaced by 80 μL fresh medium. 10 μL of the 10× final concentration compound is added to the cells and incubated for 1 hour at 37° C. before addition of trigger. No trigger conditions/trigger conditions are spiked with equal final DMSO concentrations of 0.2% DMSO. 10 μL of 10×LPS (final conc. 200 ng/mL) solution are added to all wells except for the ‘no trigger wells’ where 10 μL medium is added. Supernatant is collected after 2 h (IL-10 determination) and after 20 h (TNFα determination) of LPS triggering.
The plate is then washed once with PBST (PBS+0.05% Tween20) and once with PBS followed by the addition of 100 μL of blocking buffer (1% Bovine Serum Albumin (BSA)−5% Sucrose) and plates are sealed and incubated for at least 4 h at RT. After washing the plate once with PBST and once with PBS, 40 μL of standard or sample are added (TNFα standard curve is prepared using a 1/2 serial dilution starting from […]; dilutions are made in dilution buffer (PBS+1% BSA)). Plates are washed twice with PBST, and once with PBS, after which 35 μL of the detection antibody is added (final concentration 0.25 μg/mL diluted in dilution buffer) and plates are incubated for at least 2 h at RT. Plates are washed twice with PBST, and once with PBS, where after 35 μL of Strep-HRP conjugate (0.5 μg/mL final concentration diluted in dilution buffer) is added. Plates are incubated in the dark, at RT for at least 45 min but no longer than 1 hour. Plates are washed twice with PBST, and once with PBS.

T1 sequence (P57059 whole entry): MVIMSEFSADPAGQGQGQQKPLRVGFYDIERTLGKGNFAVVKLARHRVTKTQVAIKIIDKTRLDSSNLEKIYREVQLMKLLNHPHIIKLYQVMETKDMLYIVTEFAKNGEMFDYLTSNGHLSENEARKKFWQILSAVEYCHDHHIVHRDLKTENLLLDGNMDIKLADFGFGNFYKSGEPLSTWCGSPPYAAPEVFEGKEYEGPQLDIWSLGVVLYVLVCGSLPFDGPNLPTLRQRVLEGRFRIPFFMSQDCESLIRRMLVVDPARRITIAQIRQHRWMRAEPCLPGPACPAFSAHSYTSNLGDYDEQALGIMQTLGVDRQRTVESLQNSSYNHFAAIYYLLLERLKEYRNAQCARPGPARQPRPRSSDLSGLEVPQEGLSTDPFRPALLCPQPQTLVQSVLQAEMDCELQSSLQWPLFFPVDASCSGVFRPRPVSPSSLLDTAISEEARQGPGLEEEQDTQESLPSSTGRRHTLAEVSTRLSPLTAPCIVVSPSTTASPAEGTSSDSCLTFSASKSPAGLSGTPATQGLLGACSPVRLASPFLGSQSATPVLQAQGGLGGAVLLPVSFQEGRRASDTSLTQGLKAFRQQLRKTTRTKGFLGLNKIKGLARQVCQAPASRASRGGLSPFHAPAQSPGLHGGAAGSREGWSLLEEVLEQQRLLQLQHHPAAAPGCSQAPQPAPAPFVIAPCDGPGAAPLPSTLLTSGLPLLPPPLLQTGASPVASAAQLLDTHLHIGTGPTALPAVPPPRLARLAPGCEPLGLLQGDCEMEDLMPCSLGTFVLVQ
T3 sequence (Q9Y2K2 whole entry): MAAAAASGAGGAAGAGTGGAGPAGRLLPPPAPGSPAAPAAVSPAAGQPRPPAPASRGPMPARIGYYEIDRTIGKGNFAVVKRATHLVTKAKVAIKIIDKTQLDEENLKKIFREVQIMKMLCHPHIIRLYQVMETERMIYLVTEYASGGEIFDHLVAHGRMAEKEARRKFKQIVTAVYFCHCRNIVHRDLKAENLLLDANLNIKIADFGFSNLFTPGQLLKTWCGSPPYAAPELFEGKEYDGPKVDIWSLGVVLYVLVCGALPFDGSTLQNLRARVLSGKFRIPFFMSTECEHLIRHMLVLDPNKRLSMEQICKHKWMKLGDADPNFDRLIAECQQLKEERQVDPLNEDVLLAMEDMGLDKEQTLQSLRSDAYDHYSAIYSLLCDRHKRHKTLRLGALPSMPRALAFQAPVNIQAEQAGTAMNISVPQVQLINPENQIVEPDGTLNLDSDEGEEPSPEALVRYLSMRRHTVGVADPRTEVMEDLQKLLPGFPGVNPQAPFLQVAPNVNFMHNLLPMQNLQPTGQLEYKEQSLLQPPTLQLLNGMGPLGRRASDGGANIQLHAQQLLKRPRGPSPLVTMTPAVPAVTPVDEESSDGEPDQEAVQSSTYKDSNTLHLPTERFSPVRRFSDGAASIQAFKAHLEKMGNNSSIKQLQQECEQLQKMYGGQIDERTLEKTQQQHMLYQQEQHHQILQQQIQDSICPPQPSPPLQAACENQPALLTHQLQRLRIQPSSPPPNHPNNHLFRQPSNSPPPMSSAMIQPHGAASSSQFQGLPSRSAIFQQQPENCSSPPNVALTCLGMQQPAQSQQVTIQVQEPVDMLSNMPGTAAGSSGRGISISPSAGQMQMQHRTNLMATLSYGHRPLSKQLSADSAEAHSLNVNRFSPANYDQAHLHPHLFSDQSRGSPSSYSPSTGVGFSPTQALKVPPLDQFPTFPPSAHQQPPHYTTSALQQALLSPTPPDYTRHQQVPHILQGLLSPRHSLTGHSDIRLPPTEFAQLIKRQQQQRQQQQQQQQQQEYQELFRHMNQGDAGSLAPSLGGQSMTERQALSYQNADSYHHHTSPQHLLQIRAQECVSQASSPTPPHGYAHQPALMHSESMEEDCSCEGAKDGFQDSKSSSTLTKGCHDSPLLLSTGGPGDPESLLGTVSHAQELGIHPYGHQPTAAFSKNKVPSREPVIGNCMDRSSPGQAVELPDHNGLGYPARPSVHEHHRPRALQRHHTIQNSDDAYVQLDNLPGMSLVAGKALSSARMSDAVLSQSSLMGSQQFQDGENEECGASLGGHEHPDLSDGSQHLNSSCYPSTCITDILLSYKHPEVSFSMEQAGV
T2 sequence (Q9H0K1 whole entry): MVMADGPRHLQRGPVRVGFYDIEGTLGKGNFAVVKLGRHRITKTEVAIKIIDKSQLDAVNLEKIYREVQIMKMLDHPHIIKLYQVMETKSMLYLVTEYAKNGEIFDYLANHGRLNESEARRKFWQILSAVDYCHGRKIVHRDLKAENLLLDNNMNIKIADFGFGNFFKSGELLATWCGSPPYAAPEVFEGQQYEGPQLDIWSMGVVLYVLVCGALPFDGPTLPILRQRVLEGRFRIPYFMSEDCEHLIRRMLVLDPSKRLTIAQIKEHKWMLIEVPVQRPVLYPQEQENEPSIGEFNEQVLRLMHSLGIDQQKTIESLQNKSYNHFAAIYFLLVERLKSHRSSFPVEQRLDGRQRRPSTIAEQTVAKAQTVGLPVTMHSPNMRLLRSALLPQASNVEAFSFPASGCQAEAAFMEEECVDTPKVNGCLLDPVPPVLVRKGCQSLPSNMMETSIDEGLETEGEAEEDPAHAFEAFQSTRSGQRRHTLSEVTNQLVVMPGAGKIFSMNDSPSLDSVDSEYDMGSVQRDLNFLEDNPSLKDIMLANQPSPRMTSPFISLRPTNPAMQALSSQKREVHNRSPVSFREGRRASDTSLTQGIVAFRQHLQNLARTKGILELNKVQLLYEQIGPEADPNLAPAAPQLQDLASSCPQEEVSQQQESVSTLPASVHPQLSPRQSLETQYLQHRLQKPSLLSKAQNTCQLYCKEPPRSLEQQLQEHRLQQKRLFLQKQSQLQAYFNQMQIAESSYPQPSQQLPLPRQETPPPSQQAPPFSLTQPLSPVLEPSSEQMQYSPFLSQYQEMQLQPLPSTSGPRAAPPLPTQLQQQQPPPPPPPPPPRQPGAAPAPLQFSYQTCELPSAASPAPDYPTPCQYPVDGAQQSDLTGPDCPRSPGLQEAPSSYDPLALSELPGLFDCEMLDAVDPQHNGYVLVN

| Structure (SMILES) | IC50 (SIK1) | IC50 (SIK2) | IC50 (SIK3) | EC50 ([1]; 4 h) | IL-10 FCmax median [2] | EC50 [1] | EC50 [3] |
| --- | --- | --- | --- | --- | --- | --- | --- |
| CCOC(=O)COc1ccn2c(-c3cc(OC)c(C(=O)NC4CC4)c(OC(F)F)c3)cnc2c1 [Cpd 268, ethyl 2-[3-[4-(cyclopropylcarbamoyl)-3-(difluoromethoxy)-5-methoxy-phenyl]imidazo[1,2-a]pyridin-7-yl]oxyacetate] | 10 to 100 nM | 10 to 100 nM | 0.01 to 10 nM | 100 to 1000 nM | +++ (>4.5) | – | – |
| COc1cc(-c2cnc3cc(OC4C[C@H]5CC[C@@H](C4)N5)ccn23)cc(OC(F)F)c1C(=O)NC1CC1.Cl (stereo partly drawn) [Cpd 270, 4-[7-[[(1R,5S)-8-azabicyclo[3.2.1]octan-3-yl]oxy]imidazo[1,2-a]pyridin-3-yl]-N-cyclopropyl-2-(difluoromethoxy)-6-methoxy-benzamide hydrochloride salt] | 100 to 500 nM | 10 to 100 nM | 0.01 to 10 nM | – | ++ (>1.5-4.5) | 1000 to 5000 nM | – |
| COc1cc(-c2cnc3cc(OC[C@@H]4CCCCN4C)ccn23)cc(OC(F)F)c1C(=O)NC1CC1 [compound 139, N-cyclopropyl-2-(difluoromethoxy)-6-methoxy-4-[7-[[(2S)-1-methyl-2-piperidyl]methoxy]imidazo [1,2-a]pyridin-3-yl]benzamide] | 100 to 500 nM | 0.01 to 10 nM | 0.01 to 10 nM | – | – | – | 100 to 1000 nM |
| CNc1cc(-c2cnc3cc(OCCN(C)C)ccn23)cc(OC(F)F)c1C(=O)NC1CC1 [compound 147, N-cyclopropyl-2-(difluoromethoxy)-4-[7-[2-(dimethylamino)ethoxy]imidazo[1,2-a]pyridin-3-yl]-6-(methylamino)benzamide] | 10 to 100 nM | 0.01 to 10 nM | 0.01 to 10 nM | – | – | – | 100 to 1000 nM |
| COCC1CN(CCOc2ccn3c(-c4cc(OC)c(C(=O)NC5CC5)c(OC(F)F)c4)cnc3c2)CCO1 (stereo not drawn) [compound 158, N-cyclopropyl-2-(difluoromethoxy)-6-methoxy-4-[7-[2-[2-(methoxymethyl)morpholin-4-yl]ethoxy]imidazo[1,2-a]pyridin-3-yl]benzamide] | 10 to 100 nM | 0.01 to 10 nM | 0.01 to 10 nM | – | – | – | 0.1 to 100 nM |
| COc1cc(-c2cnc3cc(OCC4(C)CCCN4)ccn23)cc(OC(F)F)c1C(=O)NC1CC1 (stereo not drawn) [compound 168, N-cyclopropyl-2-(difluoromethoxy)-6-methoxy-4-[7-[(2-methylpyrrolidin-2-yl)methoxy]imidazo[1,2-a]pyridin-3-yl]benzamide] | 100 to 500 nM | 0.01 to 10 nM | 0.01 to 10 nM | – | – | – | 100 to 1000 nM |
| COc1cc(-c2cnc3cc(OCC4(C)CCCCN4)ccn23)cc(OC(F)F)c1C(=O)NC1CC1 (stereo not drawn) [compound 172, N-cyclopropyl-2-(difluoromethoxy)-6-methoxy-4-[7-[(2-methyl-2-piperidyl)methoxy]imidazo[1,2-a]pyridin-3-yl]benzamide] | 100 to 500 nM | 0.01 to 10 nM | 0.01 to 10 nM | – | – | – | 1000 to 5000 nM |
| COc1cc(-c2cnc3cc(OCCN4CCOCC4)ccn23)cc(OC(F)F)c1C(=O)NCC(F)(F)F [compound 230, 2-(difluoromethoxy)-6-methoxy-4-[7-(2-morpholinoethoxy)imidazo [1,2-a]pyridin-3-yl]-N-(2,2,2-trifluoroethyl)benzamide] | 10 to 100 nM | 0.01 to 10 nM | 0.01 to 10 nM | – | – | – | 100 to 1000 nM |
| COc1cc(-c2cnc3cc(OCCN4C[C@@H]5C[C@H]4CO5)ccn23)cc2c1C(=O)N(CC(F)(F)F)CC2 [compound 245, 8-methoxy-6-[7-[2-[(1S,4S)-2-oxa-5-azabicyclo[2.2.1]heptan-5-yl]ethoxy]imidazo[1,2-a]pyridin-3-yl]-2-(2,2,2-trifluoroethyl)-3,4-dihydro isoquinolin-1-one] | > 500 nM | 0.01 to 10 nM | 0.01 to 10 nM | – | +++ (>4.5) | – | 100 to 1000 nM |
